How the values were obtained:
PSME1_C106 and PSME2_C91 = biological target: T1, PSME1_C106 and PSME2_C91 (Homo sapiens, UniProt Q06323); assay: IA-DTB cysteine reactivity; type: binding; conditions: 22Rv1 cells, 20 μM, 1 h
T1 construct: endogenous in cells; host or cells: 22Rv1
Protocol: (§1) Sample preparation: Cells (adherent: 15 cm dishes, suspension: 2 million cells/mL) were treated with electrophilic probes in situ for indicated times and concentrations, washed with ice-cold PBS, and flash frozen in liquid nitrogen. Cell pellets were lysed by sonication (8 pulses, 40% power) in 500 μL ice-cold PBS supplemented with cOmplete protease inhibitors (1 tablet/10 mL of PBS). Whole cell lysates protein content was measured using a standard DC protein assay (Bio-Rad) and 500 μL (2 mg/mL protein content) were treated with 5 μL of 10 mM 1A-DTB (in DMSO) for 1 h at ambient temperature with occasional vortexing. Samples were methanol-chloroform precipitated with the addition of 500 μL ice-cold MeOH and 200 μL CHCl3, vortexed, and centrifuged (10 min, 10,000 g). Without disrupting the protein disk, both top and bottom layers were aspirated and the protein disk was washed with 1 mL ice-cold MeOH and centrifuged (10 min, 10,000 g). The pellets were allowed to air dry, and then re-suspended in 90 μL buffer (9 M urea, 10 mM DTT, 50 mM TEAB pH 8.5). […]
(§2) Data processing: Cysteine engagement ratios (probe vs DMSO) were calculated for each peptide-spectra match by dividing each TMT reporter ion intensity by the average intensity for the channels corresponding to DMSO treatment. […]

DDX42 = assay: SEC-MS elution profile; type: cell-based, human; conditions: 22Rv1 cells, 20 μM, 3 h
Protocol: . Cell pellets were lysed by sonication (8 pulses, 40% power) in 600 μL ice-cold PBS supplemented with cOmplete protease inhibitors (1 tablet/10 mL of PBS), ultracentrifuged for 20 min at 100,000 g, then normalized to a standardized concentration (typically 1.5 to 2.5 mg/mL). Clarified lysate was injected into a Superdex 200 Increase 10/300 GL column attached to an AKTA pure FPLC system. Proteins were fractionated using an isocratic gradient (PBS) running at 0.5 mL/min into 5 fractions 2 mL wide, beginning at 8 mL and ending at 18 mL. Eluate was collected into 15 mL tubes containing 12 mL of acetone at 4C. After completion of one set of 5 fractions, the above protocol was repeated a second time for the remaining 5 fractions. Proteins were precipitated overnight at −20 C, then spun at 4500 g for 20 minutes, yielding a white protein pellet. […]
Data processing: Fractional distributions for each peptide-spectra match with a total TMT reporter ion intensity were calculated by dividing the reporter ion intensity for each TMT channel by the summed intensity across the 5 TMT channels corresponding to a single treatment condition (Equation 1). […] Euclidean distances (SE shift scores, Equation 2) were calculated using the average elution profile for each protein across replicates, combined by treatment condition and cell line. […]

PHF5A_C26 = biological target: T2, PHF5A_C26 (Homo sapiens, UniProt O75533+Q7RTV0); assay: IA-DTB cysteine reactivity profiling; type: binding
T2 construct: endogenous in cells
Protocol: as §1, §2

T2 sequence (Q7RTV0 whole entry): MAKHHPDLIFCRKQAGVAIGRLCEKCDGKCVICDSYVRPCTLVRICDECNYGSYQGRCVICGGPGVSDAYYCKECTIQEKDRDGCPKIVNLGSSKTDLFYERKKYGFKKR
T2 sequence (O75533 whole entry): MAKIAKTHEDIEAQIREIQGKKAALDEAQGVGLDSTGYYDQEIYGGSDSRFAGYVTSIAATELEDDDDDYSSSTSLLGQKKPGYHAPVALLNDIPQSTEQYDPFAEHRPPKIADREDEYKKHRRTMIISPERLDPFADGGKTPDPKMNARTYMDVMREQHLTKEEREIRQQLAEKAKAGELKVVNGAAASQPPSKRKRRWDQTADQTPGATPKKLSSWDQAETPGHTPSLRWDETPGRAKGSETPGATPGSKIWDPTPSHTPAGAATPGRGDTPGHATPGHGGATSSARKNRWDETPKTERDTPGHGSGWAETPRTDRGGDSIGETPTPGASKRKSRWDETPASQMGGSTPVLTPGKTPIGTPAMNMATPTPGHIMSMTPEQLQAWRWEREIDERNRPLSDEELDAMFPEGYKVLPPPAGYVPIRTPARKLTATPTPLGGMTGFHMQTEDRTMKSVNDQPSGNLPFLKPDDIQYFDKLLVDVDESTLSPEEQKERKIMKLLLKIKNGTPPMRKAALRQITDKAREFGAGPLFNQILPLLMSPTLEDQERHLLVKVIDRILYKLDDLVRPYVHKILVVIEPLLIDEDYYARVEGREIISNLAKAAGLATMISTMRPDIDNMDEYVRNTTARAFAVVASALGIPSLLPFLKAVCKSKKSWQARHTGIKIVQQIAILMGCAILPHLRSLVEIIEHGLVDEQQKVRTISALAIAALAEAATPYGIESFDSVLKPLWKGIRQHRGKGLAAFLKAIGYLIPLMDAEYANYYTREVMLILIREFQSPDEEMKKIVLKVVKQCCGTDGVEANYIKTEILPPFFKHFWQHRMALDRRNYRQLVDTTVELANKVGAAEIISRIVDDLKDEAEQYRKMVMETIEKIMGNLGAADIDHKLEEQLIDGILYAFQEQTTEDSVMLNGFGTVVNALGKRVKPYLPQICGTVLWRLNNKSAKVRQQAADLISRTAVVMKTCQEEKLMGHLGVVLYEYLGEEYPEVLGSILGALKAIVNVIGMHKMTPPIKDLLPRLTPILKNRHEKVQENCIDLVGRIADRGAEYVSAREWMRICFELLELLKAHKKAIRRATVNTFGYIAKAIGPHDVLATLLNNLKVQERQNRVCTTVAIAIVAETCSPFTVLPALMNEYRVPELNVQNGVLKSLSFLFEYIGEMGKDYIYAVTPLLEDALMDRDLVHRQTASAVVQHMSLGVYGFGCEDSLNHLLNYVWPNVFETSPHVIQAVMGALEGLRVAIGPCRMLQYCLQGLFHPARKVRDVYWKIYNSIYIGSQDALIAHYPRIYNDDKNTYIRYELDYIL
T2 sequence (Q15393 whole entry partner): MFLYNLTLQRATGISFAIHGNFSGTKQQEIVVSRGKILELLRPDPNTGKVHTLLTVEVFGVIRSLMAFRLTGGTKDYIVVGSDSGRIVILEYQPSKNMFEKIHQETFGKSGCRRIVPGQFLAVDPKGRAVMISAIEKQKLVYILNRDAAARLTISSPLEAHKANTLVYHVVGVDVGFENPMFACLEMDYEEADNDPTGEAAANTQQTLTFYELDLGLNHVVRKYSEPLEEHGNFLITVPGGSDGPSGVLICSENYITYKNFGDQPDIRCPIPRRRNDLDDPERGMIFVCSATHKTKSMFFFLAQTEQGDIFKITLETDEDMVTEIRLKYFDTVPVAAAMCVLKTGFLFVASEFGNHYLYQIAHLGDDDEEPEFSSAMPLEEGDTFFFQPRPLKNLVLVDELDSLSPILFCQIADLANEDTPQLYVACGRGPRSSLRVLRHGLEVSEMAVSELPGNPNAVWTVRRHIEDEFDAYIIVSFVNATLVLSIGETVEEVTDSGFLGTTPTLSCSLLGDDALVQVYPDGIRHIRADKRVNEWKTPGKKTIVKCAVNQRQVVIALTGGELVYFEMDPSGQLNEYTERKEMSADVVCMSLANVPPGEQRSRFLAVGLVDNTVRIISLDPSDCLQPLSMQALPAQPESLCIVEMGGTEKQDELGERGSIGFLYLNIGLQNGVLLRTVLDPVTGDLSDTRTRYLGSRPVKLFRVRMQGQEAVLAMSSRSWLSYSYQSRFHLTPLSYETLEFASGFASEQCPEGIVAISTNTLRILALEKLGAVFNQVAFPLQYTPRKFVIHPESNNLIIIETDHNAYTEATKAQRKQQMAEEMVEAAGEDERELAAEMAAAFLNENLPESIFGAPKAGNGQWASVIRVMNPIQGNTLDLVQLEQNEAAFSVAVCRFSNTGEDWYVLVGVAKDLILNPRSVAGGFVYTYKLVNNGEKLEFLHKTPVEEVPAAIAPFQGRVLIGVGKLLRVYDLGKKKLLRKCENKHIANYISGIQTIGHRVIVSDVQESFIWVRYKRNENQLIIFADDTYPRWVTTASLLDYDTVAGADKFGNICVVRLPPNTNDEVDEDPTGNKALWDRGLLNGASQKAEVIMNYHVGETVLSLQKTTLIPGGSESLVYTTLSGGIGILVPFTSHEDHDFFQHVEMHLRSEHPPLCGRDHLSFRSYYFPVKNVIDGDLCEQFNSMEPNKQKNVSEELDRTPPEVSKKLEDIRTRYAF
T2 sequence (Q9BWJ5 whole entry partner): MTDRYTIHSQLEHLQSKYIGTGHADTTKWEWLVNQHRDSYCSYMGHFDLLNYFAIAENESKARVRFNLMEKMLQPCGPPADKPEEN
T1 sequence (Q06323 whole entry): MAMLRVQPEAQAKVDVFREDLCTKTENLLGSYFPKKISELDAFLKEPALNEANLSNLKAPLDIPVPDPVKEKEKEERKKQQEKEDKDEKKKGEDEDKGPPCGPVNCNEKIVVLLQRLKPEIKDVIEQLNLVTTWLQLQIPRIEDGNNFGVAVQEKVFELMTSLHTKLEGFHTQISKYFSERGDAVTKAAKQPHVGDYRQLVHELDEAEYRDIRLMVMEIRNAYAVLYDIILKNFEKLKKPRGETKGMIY

engagement of PHF5A_C26 (PHF5A_C26)	SMILES	IA-DTB reactivity of PSME1 C106 and PSME2 C91 (PSME1_C106 and PSME2_C91)	SEC migration shift of DDX42 (DDX42)
–	C=CC(=O)N1C[C@H](c2ccc(Br)cc2)[C@@H]1C(=O)Nc1cccc2cccnc12 [MY-1B, (2R,3S)-1-acryloyl-3-(4-bromophenyl)-N-(quinolin-8-yl)azetidine-2-carboxamide]	striking, stereoselective increases in reactivity	–
did not engage	C=CC(=O)N1[C@H](c2ccc3c(c2)OCO3)c2[nH]c3ccccc3c2C[C@H]1C(=O)N1CCOCC1 [WX-02-23, 1-((1R,3S)-1-(benzo[d][1,3]dioxol-S-yl)-3-(morpholine-4-carbonyl)-1,3,4,9-tetrahydro-2H-pyrido [3,4-b]indol-2-yl)prop-2-en-1-one]	–	stereoselectively caused this same size shift

— US20250034216A1, “STEREOSELECTIVE COVALENT LIGANDS FOR ONCOGENIC AND IMMUNOLOGICAL PROTEINS” (The Scripps Research Institute, priority 2021, published 2025)
